Each molecule was assayed against T1, wild type (wt) lysosomal alpha-glucosidase (Homo sapiens, UniProt P10253) (assay: alpha-glucosidase activity assay in HL60 lysate (4MU-α-D-glc)). Details: at a concentration of 100 uM, 0.5 mM 4MU-α-D-glc, pH 4.5.
T1 construct: The lysates were used as a source for wild type (wt) lysosomal alpha-glucosidase; endogenous in cells; host or cells: HL60 (ECACC No. 98070106) lysate
Format: biochemical
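Further: fluorometric rate of 4MU product release read at 360 nm excitation and 450 nm emission, reactions run at 37 °C in citric phosphate buffer.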

inhibition at 100 µM	Compound
> 50%	OC[C@@H]1N[C@@H](CO)[C@H](O)[C@H]1O [Compound 729, (2S,3S,4S,5S)-2,5-bis(hydroxymethyl)pyrrolidine-3,4-diol]
> 50%	CN1[C@H](CO)[C@@H](O)[C@H](O)[C@H]1CO [Compound 515, (2R,3R,4R,5R)-2,5-bis(hydroxymethyl)-1-methylpyrrolidine-3,4-diol]
> 50%	OC[C@@H]1[C@@H](O)[C@H](O)[C@@H](O)CN1CCN1CCOCC1 [Compound 509, (2R,3R,4R,5S)-2-(hydroxymethyl)-1-(2-morpholinoethyl)piperidine-3,4,5-triol]
> 50%	O=C1N[C@H](CO)[C@H](O)[C@@H](O)[C@@H]1O [Compound 446, (3S,4R,5S,6R)-3,4,5-trihydroxy-6-(hydroxymethyl)piperidin-2-one]
> 50%	OCC1OC(O[C@H]2CN[C@H](CO)[C@@H](O)[C@@H]2O)C(O)C(O)C1O (stereo partly drawn) [Compound 121, 2-((3S,4S,5R,6R)-4,5-dihydroxy-6-(hydroxymethyl)piperidin-3-yloxy)-6-(hydroxymethyl)tetrahydro-2H-pyran-3,4,5-triol]
> 50%	CCCCN1CCC[C@@H](CO)C1 [Compound 741, (R)-(1-butylpiperidin-3-yl)methanol]
> 50%	OCC1OC(OC[C@H]2NC[C@H](O)[C@@H](O)[C@@H]2O)C(O)C(O)C1O (stereo partly drawn) [Compound 78, (2R,3R,4R,5S)-2-((3,4,5-trihydroxy-6-(hydroxymethyl)tetrahydro-2H-pyran-2-yloxy)methyl)piperidine-3,4,5-triol]
> 50%	OCC1OC(O[C@H]2[C@H](O)[C@@H](CO)N[C@@H]2CO)C(O)C(O)C1O (stereo partly drawn) [Compound 79, 2-((2R,3R,4R,5R)-4-hydroxy-2,5-bis(hydroxymethyl)pyrrolidin-3-yloxy)-6-(hydroxymethyl)tetrahydro-2H-pyran-3,4,5-triol]
> 50%	OC[C@@H]1[C@@H](O)[C@H](O)[C@@H](O)CN1Cc1ccccc1 [Compound 510, (2R,3R,4R,5S)-1-benzyl-2-(hydroxymethyl)piperidine-3,4,5-triol]
> 50%	OC[C@@H](O)[C@@H]1NC[C@](O)(CO)[C@H]1O [Compound 179, (2S,3S,4S)-2-((S)-1,2-dihydroxyethyl)-4-(hydroxymethyl)pyrrolidine-3,4-diol]
> 50%	OC[C@H]1[C@H](O)[C@@H](O)CN1Cc1ccccc1 [Compound 500, (2S,3S,4S)-1-benzyl-2-(hydroxymethyl)pyrrolidine-3,4-diol]
> 50%	O=C(O)CN1C[C@H](O)[C@@H](O)[C@H](O)[C@H]1CO [Compound 214, 2-((2R,3R,4R,5S)-3,4,5-trihydroxy-2-(hydroxymethyl)piperidin-1-yl)acetic acid]
> 50%	CC[C@@H]1N[C@@H](CO)[C@H](O)[C@@H](O)[C@@H]1O [Compound 23, (2S,3R,4S,5S,6S)-2-ethyl-6-(hydroxymethyl)piperidine-3,4,5-triol]
> 50%	C[C@@]1(CO)NC[C@H](O)[C@H]1O [Compound 501, (2S,3S,4S)-2-(hydroxymethyl)-2-methylpyrrolidine-3,4-diol]
> 50%	CCCCN1C[C@H](O)[C@@H](O)[C@H](O)[C@H]1CO [Compound 118, (2R,3R,4R,5S)-1-butyl-2-(hydroxymethyl)piperidine-3,4,5-triol]
> 50%	OC[C@H]1NC[C@H](O)[C@@H](O)[C@@H]1O [Compound 193, (2R,3R,4R,5S)-2-(hydroxymethyl)piperidine-3,4,5-triol]
> 50%	OC[C@@H]1NC[C@](O)(CO)[C@H]1O [Compound 202, (2S,3S,4S)-2,4-bis(hydroxymethyl)pyrrolidine-3,4-diol]
> 50%	OCC1OC(O[C@H]2CN3C[C@H](O)[C@@H](O)[C@H](O)[C@H]3[C@H]2O)C(O)C(O)C1O (stereo partly drawn) [Compound 41, (1R,2S,6S,7R,8R,8aS)-2-(3,4,5-trihydroxy-6-(hydroxymethyl)tetrahydro-2H-pyran-2-yloxy)octahydroindolizine-1,6,7,8-tetraol]
> 50%	C[C@@H]1N[C@@H](CO)[C@H](O)[C@H]1O [Compound 300, (2S,3S,4S,5S)-2-(hydroxymethyl)-5-methylpyrrolidine-3,4-diol]
> 50%	C[C@H]1NC[C@H](O)[C@@H](O)[C@@H]1O [Compound 388, (2R,3R,4R,5S)-2-methylpiperidine-3,4,5-triol]
> 50%	C[N+]1(C)C[C@@H](O)[C@H](O)[C@H]1C(=O)[O-] [Compound 80, (2S,3R,4R)-3,4-dihydroxy-1,1-dimethylpyrrolidinium-2-carboxylate]
> 50%	CCCC(=O)O[C@H]1CN2CC[C@H](O)C2[C@@H](O)[C@@H]1O (stereo partly drawn) [Compound 46, (1S,6S,7S,8R)-1,7,8-trihydroxyoctahydroindolizin-6-yl butyrate]
> 50%	C[C@H]1N[C@H](CO)[C@@H](O)[C@H](O)[C@H]1O [Compound 51, (2R,3R,4R,5S,6R)-2-(hydroxymethyl)-6-methylpiperidine-3,4,5-triol]
> 50%	CCCC[C@@H]1N[C@@H](CO)[C@H](O)[C@H]1O [Compound 728, (2S,3S,4S,5S)-2-butyl-5-(hydroxymethyl)pyrrolidine-3,4-diol]
> 50%	COCCOCCN1C[C@H](O)[C@@H](O)[C@H](O)[C@H]1CO [Compound 725, (2R,3R,4R,5S)-2-(hydroxymethyl)-1-(2-(2-methoxyethoxy)ethyl)piperidine-3,4,5-triol]
> 50%	CC[C@@H]1N[C@@H](CO)[C@H](O)[C@H]1O [Compound 732, (2S,3S,4S,5S)-2-ethyl-5-(hydroxymethyl)pyrrolidine-3,4-diol]
> 50%	CCCCN1C[C@H](O)[C@H](O)[C@@H]1[C@@H](O)[C@H](O)[C@H](O)CO [Compound 531, (1R,2S,3R)-1-((2R,3R,4S)-1butyl-3,4-dihydroxypyrrolidin-2-yl)butane-1,2,3,4-tetraol]
> 50%	OCCCCN1C[C@H](O)[C@@H](O)[C@H](O)[C@H]1CO [Compound 276, (2R,3R,4R,5S)-1-(4-hydroxybutyl)-2-(hydroxymethyl)piperidine-3,4,5-triol]
> 50%	OC[C@@H]1[C@@H](O)[C@H](O)[C@@H](CO)N1Cc1ccc(-c2ccccc2)cc1 [Compound 558, (2R,3R,4R,5R)-1-(biphenyl-4-ylmethyl)-2,5-bis(hydroxymethyl)pyrrolidine-3,4-diol]

Compound	inhibition at 100 µM
OC[C@@H]1[C@@H](O)[C@H](O)[C@H]2[C@H](O)[C@@H](O)CN21 [Compound 137, (1R,2R,3R,6S,7S,7aR)-3-(hydroxymethyl)hexahydro-1H-pyrrolizine-1,2,6,7-tetraol]	> 50%
O[C@H]1[C@H](O)[C@@H](O)CN2C[C@H](O)[C@@H](O)[C@H]12 [Compound 352, (1S,2S,6S,7R,8R,8aR)-octahydroindolizine-1,2,6,7,8-pentaol]	> 50%
C[C@@H]1CC[C@@H]2[C@H](O)[C@H](O)[C@@H](CO)N12 [Compound 150, (1S,2R,3R,5R,7aR)-3-(hydroxymethyl)-5-methylhexahydro-1H-pyrrolizine-1,2-diol]	> 50%

— patent US20110237538A1, “TREATMENT OF LYSOSOMAL STORAGE DISORDERS AND OTHER PROTEOSTATIC DISEASES” (SUMMIT CORPORATION PLC, priority 2008, published 2011)
